Measurements from ChEMBL document CHEMBL1146341, “Synthesis and in vivo evaluation of [18F]-4-[5-(4-methylphenyl)-3-(trifluoromethyl)-1H-pyrazol-1-yl]benzenesulfonamide as a PET imaging probe for COX-2 expression” (Bioorg Med Chem, 2007).

Experiments:
[1] = Ratio of drug uptake in skull to putamen in baboon at 1.2 mCi after 115 mins; type: ADME; settings: papio hamadryas, in vivo
[2] = Ratio of drug uptake in skull to caudate in baboon at 1.2 mCi after 115 mins; type: ADME; settings: papio hamadryas, in vivo
[3] = Drug level in baboon plasma assessed as unmetabolized fractions after 60 mins; type: ADME, cell-free; settings: papio hamadryas, read-out: Activity
[4] = Drug level in baboon plasma assessed as unmetabolized fractions after 30 mins; type: ADME, cell-free; settings: papio hamadryas, read-out: Activity
[5] = Drug level in baboon plasma assessed as unmetabolized fractions after 2 mins; type: ADME, cell-free; settings: papio hamadryas, read-out: Activity
[6] = Ratio of drug uptake in skeleton to heart in Sprague-Dawley rat at 0.2 mCi, iv after 112 mins; type: ADME, organism-based; settings: in vivo
[7] = Ratio of drug uptake in skull to hippocampus in baboon at 1.2 mCi after 115 mins; type: ADME, tissue-based; settings: papio hamadryas, in vivo
[8] = Ratio of drug uptake in skeleton to brain in Sprague-Dawley rat at 0.2 mCi, iv after 112 mins; type: ADME, organism-based; settings: in vivo
[9] = Ratio of drug uptake in skull to cerebellum in baboon at 1.2 mCi after 115 mins; type: ADME, tissue-based; settings: papio hamadryas, in vivo
[10] = Drug level in baboon plasma assessed as unmetabolized fractions after 12 mins; type: ADME, cell-free; settings: papio hamadryas, read-out: Activity
[11] = Ratio of drug uptake in skull to cingulate in baboon at 1.2 mCi after 115 mins; type: ADME; settings: papio hamadryas, in vivo
[12] = Ratio of drug uptake in skeleton to cerebellum in Sprague-Dawley rat at 0.2 mCi, iv after 112 mins; type: ADME, organism-based; settings: in vivo
[13] = Ratio of drug uptake in skull to thalamus in baboon at 1.2 mCi after 115 mins; type: ADME, tissue-based; settings: papio hamadryas, in vivo
[14] = Drug level in baboon plasma assessed as unmetabolized fractions after 4 mins; type: ADME, cell-free; settings: papio hamadryas, read-out: Activity

- Ratio [1]: 1.46
- Ratio [2]: 1.48
- remaining at 1 h [3]: 17%
- remaining at 0.5 h [4]: 30.2%
- remaining at 2 min [5]: 93.2%
- Ratio [6]: 0.7
- Ratio [7]: 1.41
- Ratio [8]: 0.45
- Ratio [9]: 1.2
- remaining at 0.2 h [10]: 47.5%
- Ratio [11]: 1.43
- Ratio [12]: 0.5
- Ratio [13]: 1.6
- remaining at 4 min [14]: 84.9%
SMILES: Cc1ccc(-c2cc(C(F)(F)[18F])nn2-c2ccc(S(N)(=O)=O)cc2)cc1
